# Results taken from ChEMBL document CHEMBL3886662, “Acid addition salt of substituted pyridine compound” (2016).
# Values joined by “and” are separate entries in the source; they are usually repeats but may differ in a detail not shown here. Equal entries are not always repeated.
# Molecular target: T1, Cholesteryl ester transfer protein (Homo sapiens, UniProt P11597)
# T1 sequence (P11597 whole entry): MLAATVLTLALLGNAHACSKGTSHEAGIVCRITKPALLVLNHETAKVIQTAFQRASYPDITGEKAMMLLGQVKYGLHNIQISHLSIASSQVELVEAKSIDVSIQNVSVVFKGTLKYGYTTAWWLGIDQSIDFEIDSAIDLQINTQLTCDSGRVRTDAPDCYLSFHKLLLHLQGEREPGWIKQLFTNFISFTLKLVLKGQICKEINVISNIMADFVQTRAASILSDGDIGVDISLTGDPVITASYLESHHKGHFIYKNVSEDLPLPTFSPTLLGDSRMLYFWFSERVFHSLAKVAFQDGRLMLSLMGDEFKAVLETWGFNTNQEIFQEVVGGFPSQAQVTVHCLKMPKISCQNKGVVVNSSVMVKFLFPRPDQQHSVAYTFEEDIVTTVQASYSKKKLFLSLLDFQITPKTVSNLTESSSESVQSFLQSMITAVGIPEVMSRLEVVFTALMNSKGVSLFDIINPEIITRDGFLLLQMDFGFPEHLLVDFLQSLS
# Assay: CETP Inhibition Assay: A recombinant human CETP protein (manufactured by Roar Biomedical Inc.; 4.5 ng), the acceptor lipoprotein described in (2) above (32.5 μg) and 5,5'-dithio-bis-(2-nitrobenzoic acid) (7 mM, 15 μl) were taken in a 96 well plate and the total amount of the mixture was adjusted to 48.5 μl with the PBS solution. The test compound [DMSO solution (concentration: 0.15, 0.5, 1.5, 5, 15, 50, 150 and 500 μM); 1.5 μl] was added to each well and the mixture was incubated in a thermostatic bath at 37 °C. for 60 minutes. The reconstituted HDL (50 μl) described in (1) above was added to each well and the mixture was reacted in a thermostatic bath at 37 °C. for 60 minutes. The 96 well plate was moved onto ice and a precipitation reagent [a mixed solution of magnesium chloride (60 mM) and 0.1% dextran sulfate[1/1(v/v)]; 15 μl] was added to each well, and then the mixture was allowed to stand on ice for 15 minutes. The reaction solution (80 μl) in each well was moved to a filter plate and centrifuged at 1500 rpm for 1 minute, and the filtrate which passed through the filter was designated as the HDL fraction and the radioactivity thereof was measured with a scintillation counter.
compound,measurement,value
CC(C)(O)CCOc1cnc(N2CCC(c3nc4c(c(C5CCC(F)(F)CC5)c3[C@@H](F)c3ccc(C(F)(F)F)cc3)[C@@H](O)CC(C)(C)C4)CC2)nc1,IC50,17.8 nM and 21.3 nM
